Assay results taken from patent US8158186B2, “2-methylthioethyl-substituted heterocycles as feed additives” (Evonik Degussa GmbH, priority 2007, dated 2012).
Where two headings read alike, the source gives them in different places.

How the values were obtained:
[1] = cited from earlier work
[2] = European Commission report, 25 Apr. 2003; cited from earlier work
[3] = published in WO 00/28835, ruminants

Row | Compound | melting point [°C] | biological value [1, 3] | further results
1 | CSCCC(N)C(=O)OC(C)(C)C (racemic) [D,L-tert-butylmethionine, reference compound] |  | 80% | 
2 | CSCCC(O)C(=O)OC(C)C (centres unmarked) [HMBi] |  | at least 50% | HMBi absorbed through the rumen wall [2]: approximately 50%; biological value ([1]; published in EP 1358805, HMBi applied to a porous carrier, compared with the at least 50% of WO 00/28835): comparable

Now from value to compound, other results behind:

Row | melting point [°C] | Compound | biological value [1, 3] | further results
3 | 130 | CSCCC1OC(c2ccccc2)NC1=O (centres unmarked) [compound 12, 5-(2-(methylthio)ethyl)-2-phenyloxazolidin-4-one] |  | 
4 | 84 | CSCCC1OC(C)(C)NC1=O (centres unmarked) [compound 10, 2,2-dimethyl-5-(2-(methylthio)ethyl)oxazolidin-4-one] |  | 
5 | 62 | CCC1(C)NC(=O)C(CCSC)O1 (centres unmarked) [compound 13, 2-ethyl-2-methyl-5-(2-(methylthio)ethyl)oxazolidin-4-one] |  | 
6 | 109 | CSCCC1OC2(CCCCC2)NC1=O (centres unmarked) [compound 14, 2-(2-(methylthio)ethyl)-1-oxa-4-azaspiro[4.5]decan-3-one] |  | 
